# Experimental data taken from ChEMBL document CHEMBL1149335, “Dual-acting agents that possess free radical scavenging and antithrombotic activities: design, synthesis, and evaluation of phenolic tetrahydro-beta-carboline RGD peptide conjugates” (Bioorg Med Chem Lett, 2006).
# Numbered stars: 1 amine (or outer) side, 2 acyl side, 3 side chain; on linkers, the order of the positions; unused ones are H or OH. Square brackets hold non-standard residues; d marks the D form. Peptide text beside a SMILES is read from it. X1 = COc1cc(C2c3[nH]c4ccccc4c3CC(C(=O)[*:2])N2[*:1])cc(OC)c1O
# Test system: PC-12
# Assay: H2O2 radical scavenging activity assessed in PC12 cells
# Assay type: functional, cell-based
# Details: Rattus norvegicus
row,EC50 [µM],Structure (SMILES)
1,33.5,COc1cc(C2NC(C(=O)N[C@@H](CCCN=C(N)N)C(=O)NCC(=O)N[C@@H](CC(=O)O)C(=O)N[C@H](C(=O)O)C(C)C)Cc3c2[nH]c2ccccc32)cc(OC)c1O (stereo partly drawn) (H-[X1]RGDV-OH)

# Test system: PC-12
# Assay: OH radical scavenging activity assessed in PC12 cells
# Assay type: functional, cell-based
# Details: Rattus norvegicus
row,EC50 [µM],Structure (SMILES)
1,92.3,COc1cc(C2NC(C(=O)N[C@@H](CCCN=C(N)N)C(=O)NCC(=O)N[C@@H](CC(=O)O)C(=O)N[C@H](C(=O)O)C(C)C)Cc3c2[nH]c2ccccc32)cc(OC)c1O (stereo partly drawn) (H-[X1]RGDV-OH)

# Species on record: Rattus norvegicus
# Assay: NO radical scavenging activity assessed as inhibition of Ach-induced vasorelaxation in rat aorta at 0.1 uM
# Assay type: functional
# Details: not given
row,Structure (SMILES),inhibition [%]
1,COc1cc(C2NC(C(=O)N[C@@H](CCCN=C(N)N)C(=O)NCC(=O)N[C@@H](CC(=O)O)C(=O)N[C@H](C(=O)O)C(C)C)Cc3c2[nH]c2ccccc32)cc(OC)c1O (stereo partly drawn) (H-[X1]RGDV-OH),71.2

# Species on record: Oryctolagus cuniculus
# Assay: Effect on PAF-induced platelet aggregation in rabbit platelet-rich plasma at 10 uM
# Assay type: functional
# Details: not given
row,Structure (SMILES),Activity [%]
1,N=C(N)NCCC[C@H](N)C(=O)NCC(=O)N[C@@H](CC(=O)O)C(=O)N[C@@H](CO)C(=O)O,22.03
2,N=C(N)NCCC[C@H](N)C(=O)NCC(=O)N[C@@H](CC(=O)O)C(=O)N[C@@H](Cc1ccccc1)C(=O)O (H-RGDF-OH),7.73
3,CC(C)[C@H](NC(=O)[C@H](CC(=O)O)NC(=O)CNC(=O)[C@@H](N)CCCNC(=N)N)C(=O)O (H-RGDV-OH),20.01
4,COc1cc(C2NC(C(=O)N[C@@H](CCCN=C(N)N)C(=O)NCC(=O)N[C@@H](CC(=O)O)C(=O)N[C@H](C(=O)O)C(C)C)Cc3c2[nH]c2ccccc32)cc(OC)c1O (stereo partly drawn) (H-[X1]RGDV-OH),25.88

# Species on record: Rattus norvegicus
# Assay: NO radical scavenging activity assessed as inhibition of Ach-induced vasorelaxation in rat aorta at 0.01 uM
# Assay type: functional
# Details: not given
row,Structure (SMILES),inhibition [%]
1,COc1cc(C2NC(C(=O)N[C@@H](CCCN=C(N)N)C(=O)NCC(=O)N[C@@H](CC(=O)O)C(=O)N[C@H](C(=O)O)C(C)C)Cc3c2[nH]c2ccccc32)cc(OC)c1O (stereo partly drawn) (H-[X1]RGDV-OH),13.3

# Species on record: Rattus norvegicus
# Assay: NO radical scavenging activity assessed as inhibition of Ach-induced vasorelaxation in rat aorta at 1 uM
# Assay type: functional
# Details: not given
row,Structure (SMILES),inhibition [%]
1,COc1cc(C2NC(C(=O)N[C@@H](CCCN=C(N)N)C(=O)NCC(=O)N[C@@H](CC(=O)O)C(=O)N[C@H](C(=O)O)C(C)C)Cc3c2[nH]c2ccccc32)cc(OC)c1O (stereo partly drawn) (H-[X1]RGDV-OH),92.2

# Species on record: Oryctolagus cuniculus
# Assay: Effect on ADP-induced platelet aggregation in rabbit platelet-rich plasma at 10 uM
# Assay type: functional
# Details: not given
row,Structure (SMILES),Activity [%]
1,N=C(N)NCCC[C@H](N)C(=O)NCC(=O)N[C@@H](CC(=O)O)C(=O)N[C@@H](CO)C(=O)O,16.6
2,N=C(N)NCCC[C@H](N)C(=O)NCC(=O)N[C@@H](CC(=O)O)C(=O)N[C@@H](Cc1ccccc1)C(=O)O (H-RGDF-OH),7.87
3,CC(C)[C@H](NC(=O)[C@H](CC(=O)O)NC(=O)CNC(=O)[C@@H](N)CCCNC(=N)N)C(=O)O (H-RGDV-OH),11.65
4,COc1cc(C2NC(C(=O)N[C@@H](CCCN=C(N)N)C(=O)NCC(=O)N[C@@H](CC(=O)O)C(=O)N[C@H](C(=O)O)C(C)C)Cc3c2[nH]c2ccccc32)cc(OC)c1O (stereo partly drawn) (H-[X1]RGDV-OH),14.38

# Species on record: Oryctolagus cuniculus
# Assay: Effect on ADP-induced platelet aggregation in rabbit platelet-rich plasma at 1 uM
# Assay type: functional
# Details: not given
row,Structure (SMILES),Activity [%]
1,N=C(N)NCCC[C@H](N)C(=O)NCC(=O)N[C@@H](CC(=O)O)C(=O)N[C@@H](CO)C(=O)O,39.62
2,N=C(N)NCCC[C@H](N)C(=O)NCC(=O)N[C@@H](CC(=O)O)C(=O)N[C@@H](Cc1ccccc1)C(=O)O (H-RGDF-OH),22.71
3,CC(C)[C@H](NC(=O)[C@H](CC(=O)O)NC(=O)CNC(=O)[C@@H](N)CCCNC(=N)N)C(=O)O (H-RGDV-OH),29.61
4,COc1cc(C2NC(C(=O)N[C@@H](CCCN=C(N)N)C(=O)NCC(=O)N[C@@H](CC(=O)O)C(=O)N[C@H](C(=O)O)C(C)C)Cc3c2[nH]c2ccccc32)cc(OC)c1O (stereo partly drawn) (H-[X1]RGDV-OH),29.6

# Species on record: Oryctolagus cuniculus
# Assay: Effect on ADP-induced platelet aggregation in rabbit platelet-rich plasma at 0.1 uM
# Assay type: functional
# Details: not given
row,Structure (SMILES),Activity [%]
1,N=C(N)NCCC[C@H](N)C(=O)NCC(=O)N[C@@H](CC(=O)O)C(=O)N[C@@H](CO)C(=O)O,52.5
2,N=C(N)NCCC[C@H](N)C(=O)NCC(=O)N[C@@H](CC(=O)O)C(=O)N[C@@H](Cc1ccccc1)C(=O)O (H-RGDF-OH),34.99
3,CC(C)[C@H](NC(=O)[C@H](CC(=O)O)NC(=O)CNC(=O)[C@@H](N)CCCNC(=N)N)C(=O)O (H-RGDV-OH),51.78
4,COc1cc(C2NC(C(=O)N[C@@H](CCCN=C(N)N)C(=O)NCC(=O)N[C@@H](CC(=O)O)C(=O)N[C@H](C(=O)O)C(C)C)Cc3c2[nH]c2ccccc32)cc(OC)c1O (stereo partly drawn) (H-[X1]RGDV-OH),50.2

# Species on record: Oryctolagus cuniculus
# Assay: Effect on PAF-induced platelet aggregation in rabbit platelet-rich plasma at 1 uM
# Assay type: functional
# Details: not given
row,Structure (SMILES),Activity [%]
1,N=C(N)NCCC[C@H](N)C(=O)NCC(=O)N[C@@H](CC(=O)O)C(=O)N[C@@H](CO)C(=O)O,36.47
2,N=C(N)NCCC[C@H](N)C(=O)NCC(=O)N[C@@H](CC(=O)O)C(=O)N[C@@H](Cc1ccccc1)C(=O)O (H-RGDF-OH),24.02
3,CC(C)[C@H](NC(=O)[C@H](CC(=O)O)NC(=O)CNC(=O)[C@@H](N)CCCNC(=N)N)C(=O)O (H-RGDV-OH),34.84
4,COc1cc(C2NC(C(=O)N[C@@H](CCCN=C(N)N)C(=O)NCC(=O)N[C@@H](CC(=O)O)C(=O)N[C@H](C(=O)O)C(C)C)Cc3c2[nH]c2ccccc32)cc(OC)c1O (stereo partly drawn) (H-[X1]RGDV-OH),35.8

# Species on record: Oryctolagus cuniculus
# Assay: Effect on PAF-induced platelet aggregation in rabbit platelet-rich plasma at 0.1 uM
# Assay type: functional
# Details: not given
row,Structure (SMILES),Activity [%]
1,N=C(N)NCCC[C@H](N)C(=O)NCC(=O)N[C@@H](CC(=O)O)C(=O)N[C@@H](CO)C(=O)O,56.69
2,N=C(N)NCCC[C@H](N)C(=O)NCC(=O)N[C@@H](CC(=O)O)C(=O)N[C@@H](Cc1ccccc1)C(=O)O (H-RGDF-OH),40.39
3,CC(C)[C@H](NC(=O)[C@H](CC(=O)O)NC(=O)CNC(=O)[C@@H](N)CCCNC(=N)N)C(=O)O (H-RGDV-OH),55.07
4,COc1cc(C2NC(C(=O)N[C@@H](CCCN=C(N)N)C(=O)NCC(=O)N[C@@H](CC(=O)O)C(=O)N[C@H](C(=O)O)C(C)C)Cc3c2[nH]c2ccccc32)cc(OC)c1O (stereo partly drawn) (H-[X1]RGDV-OH),54.06

# Test system: Rattus norvegicus
# Assay: Decrease in weight of wet thrombus in rat at 5 umol/kg
# Assay type: functional
# Details: not given
row,Structure (SMILES),Activity [mg]
1,N=C(N)NCCC[C@H](N)C(=O)NCC(=O)N[C@@H](CC(=O)O)C(=O)N[C@@H](CO)C(=O)O,42.9
2,N=C(N)NCCC[C@H](N)C(=O)NCC(=O)N[C@@H](CC(=O)O)C(=O)N[C@@H](Cc1ccccc1)C(=O)O (H-RGDF-OH),26.68
3,CC(C)[C@H](NC(=O)[C@H](CC(=O)O)NC(=O)CNC(=O)[C@@H](N)CCCNC(=N)N)C(=O)O (H-RGDV-OH),35.6
4,COc1cc(C2NC(C(=O)N[C@@H](CCCN=C(N)N)C(=O)NCC(=O)N[C@@H](CC(=O)O)C(=O)N[C@H](C(=O)O)C(C)C)Cc3c2[nH]c2ccccc32)cc(OC)c1O (stereo partly drawn) (H-[X1]RGDV-OH),29.05

# Test system: Rattus norvegicus
# Assay: Decrease in weight of dry thrombus in rat at 5 umol/kg
# Assay type: functional
# Details: not given
row,Structure (SMILES),Activity [mg]
1,N=C(N)NCCC[C@H](N)C(=O)NCC(=O)N[C@@H](CC(=O)O)C(=O)N[C@@H](CO)C(=O)O,7.62
2,N=C(N)NCCC[C@H](N)C(=O)NCC(=O)N[C@@H](CC(=O)O)C(=O)N[C@@H](Cc1ccccc1)C(=O)O (H-RGDF-OH),4.05
3,CC(C)[C@H](NC(=O)[C@H](CC(=O)O)NC(=O)CNC(=O)[C@@H](N)CCCNC(=N)N)C(=O)O (H-RGDV-OH),6.43
4,COc1cc(C2NC(C(=O)N[C@@H](CCCN=C(N)N)C(=O)NCC(=O)N[C@@H](CC(=O)O)C(=O)N[C@H](C(=O)O)C(C)C)Cc3c2[nH]c2ccccc32)cc(OC)c1O (stereo partly drawn) (H-[X1]RGDV-OH),4.85

# Test system: PC-12
# Assay: NO radical scavenging activity assessed in PC12 cells
# Assay type: functional, cell-based
# Details: Rattus norvegicus
row,EC50 [µM],Structure (SMILES)
1,90.3,COc1cc(C2NC(C(=O)N[C@@H](CCCN=C(N)N)C(=O)NCC(=O)N[C@@H](CC(=O)O)C(=O)N[C@H](C(=O)O)C(C)C)Cc3c2[nH]c2ccccc32)cc(OC)c1O (stereo partly drawn) (H-[X1]RGDV-OH)
